Data on 3 compounds can be found in PMC8044546, “Mycobacterium tuberculosis Thymidylyltransferase RmlA Is Negatively Regulated by Ser/Thr Protein Kinase PknB” (Frontiers in Microbiology, 2021).

SMILES strings stand for the structures.

Test [1] deals with RmlA (Mycobacterium tuberculosis, UniProt P9WH13).
The target in test [2] is PknH (Mycobacterium tuberculosis, UniProt P9WI71).
Test [3] addresses PknD (Mycobacterium tuberculosis, UniProt P9WI79).

Chain of RmlA (P9WH13 whole entry): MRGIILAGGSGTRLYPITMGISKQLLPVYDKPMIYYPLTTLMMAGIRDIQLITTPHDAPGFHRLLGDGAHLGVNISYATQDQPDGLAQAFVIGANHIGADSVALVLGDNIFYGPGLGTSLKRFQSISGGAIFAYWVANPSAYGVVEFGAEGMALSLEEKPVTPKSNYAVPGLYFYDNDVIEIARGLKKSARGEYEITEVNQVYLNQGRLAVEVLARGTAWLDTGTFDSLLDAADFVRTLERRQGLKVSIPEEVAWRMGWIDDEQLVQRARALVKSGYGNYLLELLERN
Chain of PknH (P9WI71 whole entry): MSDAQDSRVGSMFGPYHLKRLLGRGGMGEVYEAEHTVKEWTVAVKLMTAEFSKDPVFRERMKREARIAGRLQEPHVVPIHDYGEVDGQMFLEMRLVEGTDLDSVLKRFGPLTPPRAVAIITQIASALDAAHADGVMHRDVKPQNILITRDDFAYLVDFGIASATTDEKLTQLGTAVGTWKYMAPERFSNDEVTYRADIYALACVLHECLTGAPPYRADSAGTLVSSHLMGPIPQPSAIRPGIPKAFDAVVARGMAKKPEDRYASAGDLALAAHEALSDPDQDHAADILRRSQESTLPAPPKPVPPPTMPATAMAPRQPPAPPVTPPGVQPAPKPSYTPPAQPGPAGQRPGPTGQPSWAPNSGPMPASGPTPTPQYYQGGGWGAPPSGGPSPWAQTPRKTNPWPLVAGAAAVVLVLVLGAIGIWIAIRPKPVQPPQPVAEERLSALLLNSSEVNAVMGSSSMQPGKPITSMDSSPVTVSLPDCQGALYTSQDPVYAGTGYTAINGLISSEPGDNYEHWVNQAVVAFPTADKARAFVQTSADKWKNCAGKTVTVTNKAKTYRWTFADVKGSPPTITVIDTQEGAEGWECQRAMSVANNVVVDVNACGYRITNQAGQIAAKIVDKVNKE
Chain of PknD (P9WI79 2-664): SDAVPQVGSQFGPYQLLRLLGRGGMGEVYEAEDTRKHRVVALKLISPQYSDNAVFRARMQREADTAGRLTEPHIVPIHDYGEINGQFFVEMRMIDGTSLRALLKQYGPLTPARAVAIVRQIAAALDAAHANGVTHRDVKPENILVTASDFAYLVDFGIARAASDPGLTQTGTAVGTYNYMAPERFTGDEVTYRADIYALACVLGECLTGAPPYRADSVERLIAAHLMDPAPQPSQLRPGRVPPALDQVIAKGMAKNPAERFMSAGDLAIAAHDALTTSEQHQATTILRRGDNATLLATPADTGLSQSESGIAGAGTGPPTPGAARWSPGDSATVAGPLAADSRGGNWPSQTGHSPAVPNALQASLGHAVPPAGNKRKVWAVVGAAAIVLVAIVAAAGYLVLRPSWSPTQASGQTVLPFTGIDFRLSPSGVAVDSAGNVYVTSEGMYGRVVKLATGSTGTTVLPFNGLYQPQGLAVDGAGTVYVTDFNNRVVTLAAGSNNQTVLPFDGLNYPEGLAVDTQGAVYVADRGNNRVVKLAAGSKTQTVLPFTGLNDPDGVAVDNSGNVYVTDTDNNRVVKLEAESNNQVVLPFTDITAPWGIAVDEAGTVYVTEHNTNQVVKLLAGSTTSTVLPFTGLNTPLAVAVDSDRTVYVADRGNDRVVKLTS

With `O=P(O)(O)O[C@H]1O[C@H](CO)[C@@H](O)[C@H](O)[C@H]1O` [D-Glc-1-P], the “malachite green phosphate assay coupled with pyrophosphatase” value in test [1] was “ability of RmlA to convert D-Glc-1-P and dTTP to D-Glc-dTDP and PPi”. On to `Nc1ncnc2c1ncn2[C@@H]1O[C@H](COP(=O)(O)OP(=O)(O)OP(=O)(O)O)[C@@H](O)[C@H]1O` [[γ-^32P]ATP], for which the autophosphorylation assay result in test [2] was “three kinases, i.e., PknB, PknD, and PknH, demonstrated high kinase activities”; in test [3] it was “three kinases, i.e., PknB, PknD, and PknH, demonstrated high kinase activities”. With `Cc1cn([C@H]2C[C@H](O)[C@@H](COP(=O)(O)OP(=O)(O)OP(=O)(O)O)O2)c(=O)[nH]c1=O` [dTTP], the “malachite green phosphate assay coupled with pyrophosphatase” value in test [1] was “ability of RmlA to convert D-Glc-1-P and dTTP to D-Glc-dTDP and PPi”.
